From PubChem BioAssay (NCI)
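The concentration for 50% growth inhibition is given as GI50. TGI marks complete inhibition of growth.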

Experiments:
Assay in all cases: DTP human tumour cell line panel, 384-well format; in the data active = GI50 below about 0.43 µM; inactive = the rest
NCI-H460 NSCLC = system: NCI-H460 NSCLC
SK-OV-3 ovarian = system: SK-OV-3 ovarian
SF-539 CNS = system: SF-539 CNS
OVCAR-8 ovarian = system: OVCAR-8 ovarian
SK-MEL-28 melanoma = system: SK-MEL-28 melanoma
RXF 393 renal = system: RXF 393 renal
DU-145 prostate = system: DU-145 prostate
HCT-15 colon = system: HCT-15 colon
T-47D breast = system: T-47D breast
ACHN renal = system: ACHN renal
RPMI-8226 leukemia = system: RPMI-8226 leukemia
NCI-H322M lung = system: NCI-H322M lung
SF-295 CNS = system: SF-295 CNS
COLO 205 colon = system: COLO 205 colon
NCI-H522 lung = system: NCI-H522 lung
HS 578T breast = system: HS 578T breast
KM12 colon = system: KM12 colon
HL-60(TB) leukemia = system: HL-60(TB) leukemia
UACC-257 melanoma = system: UACC-257 melanoma
HCC-2998 colon = system: HCC-2998 colon
CCRF-CEM leukemia = system: CCRF-CEM leukemia
OVCAR-4 ovarian = system: OVCAR-4 ovarian
UO-31 renal = system: UO-31 renal
MOLT-4 leukemia = system: MOLT-4 leukemia
BT-549 breast = system: BT-549 breast
OVCAR-5 ovarian = system: OVCAR-5 ovarian
SK-MEL-2 melanoma = system: SK-MEL-2 melanoma
786-0 renal = system: 786-0 renal
NCI-H23 lung = system: NCI-H23 lung
EKVX NSCLC = system: EKVX NSCLC
SW-620 colon = system: SW-620 colon
MALME-3M melanoma = system: MALME-3M melanoma
SK-MEL-5 melanoma = system: SK-MEL-5 melanoma
U251 glioblastoma = system: U251 glioblastoma
LOX IMVI melanoma = system: LOX IMVI melanoma
A549 NSCLC = system: A549 NSCLC
NCI/ADR-RES ovarian = system: NCI/ADR-RES ovarian
MDA-MB-435 melanoma = system: MDA-MB-435 melanoma
SN12C renal = system: SN12C renal
A498 renal = system: A498 renal
PC-3 prostate = system: PC-3 prostate
IGROV1 ovarian = system: IGROV1 ovarian
SNB-19 CNS = system: SNB-19 CNS
HOP-62 NSCLC = system: HOP-62 NSCLC
HCT-116 colon = system: HCT-116 colon
CAKI-1 renal = system: CAKI-1 renal
SNB-75 CNS = system: SNB-75 CNS
TK-10 renal = system: TK-10 renal
K-562 leukemia = system: K-562 leukemia
UACC-62 melanoma = system: UACC-62 melanoma
OVCAR-3 ovarian = system: OVCAR-3 ovarian
NCI-H226 lung = system: NCI-H226 lung
M14 melanoma = system: M14 melanoma
MDA-MB-231 breast = system: MDA-MB-231 breast
MCF7 breast = system: MCF7 breast
HT29 colon = system: HT29 colon
MDA-MB-468 breast = system: MDA-MB-468 breast
SR leukemia = system: SR leukemia
HOP-92 NSCLC = system: HOP-92 NSCLC
SF-268 CNS = system: SF-268 CNS

Cn1ncnc1[C@H]1c2n[nH]c(=O)c3cc(F)cc(c23)N[C@@H]1c1ccc(F)cc1
> 66.3 µM: TGI (NCI-H460 NSCLC)
1.27 µM: TGI (CCRF-CEM leukemia)
29.5 µM: TGI (SNB-75 CNS)
inactive: GI50 (SK-OV-3 ovarian) 3.82 µM | GI50 (SF-539 CNS) 1.02 µM | GI50 (OVCAR-8 ovarian) 0.804 µM | GI50 (SK-MEL-28 melanoma) > 90.3 µM | GI50 (RXF 393 renal) 3.29 µM | GI50 (DU-145 prostate) 1.38 µM | GI50 (HCT-15 colon) > 43.7 µM | GI50 (T-47D breast) 10.9 µM | GI50 (ACHN renal) 17 µM | GI50 (RPMI-8226 leukemia) 6.39 µM | GI50 (NCI-H322M lung) > 100 µM | GI50 (COLO 205 colon) 1.87 µM | GI50 (NCI-H522 lung) 44.6 µM | GI50 (HS 578T breast) 15.2 µM | GI50 (KM12 colon) > 100 µM | GI50 (HL-60(TB) leukemia) 0.625 µM | GI50 (UACC-257 melanoma) > 100 µM | GI50 (HCC-2998 colon) 40.3 µM | GI50 (OVCAR-4 ovarian) > 84.8 µM | GI50 (UO-31 renal) 26.9 µM | GI50 (BT-549 breast) 2.5 µM | GI50 (OVCAR-5 ovarian) > 100 µM | GI50 (SK-MEL-2 melanoma) > 100 µM | GI50 ([…]-0 renal) > 73.7 µM | GI50 (NCI-H23 lung) 0.56 µM | GI50 (EKVX NSCLC) > 78.7 µM | GI50 (SW-620 colon) 3.66 µM | GI50 (MALME-3M melanoma) > 64.6 µM | GI50 (SK-MEL-5 melanoma) 41.1 µM | GI50 (U251 glioblastoma) 2.88 µM | GI50 (LOX IMVI melanoma) 2.07 µM | GI50 (A549 NSCLC) 7.83 µM | GI50 (NCI/ADR-RES ovarian) 17.4 µM | GI50 (MDA-MB-435 melanoma) > 100 µM | GI50 (SN12C renal) 3.72 µM | GI50 (A498 renal) 31.1 µM | GI50 (PC-3 prostate) > 100 µM | GI50 (IGROV1 ovarian) > 33 µM | GI50 (SNB-19 CNS) 10.9 µM | GI50 (HCT-116 colon) 0.706 µM | GI50 (CAKI-1 renal) 21 µM | GI50 (SNB-75 CNS) 6.38 µM | GI50 (TK-10 renal) > 100 µM | GI50 (K-562 leukemia) 30.7 µM | GI50 (UACC-62 melanoma) 14.7 µM | GI50 (OVCAR-3 ovarian) > 79.7 µM | GI50 (NCI-H226 lung) 22 µM | GI50 (M14 melanoma) 2.25 µM | GI50 (MDA-MB-231 breast) > 100 µM | GI50 (MCF7 breast) 1.72 µM | GI50 (HT29 colon) > 100 µM | GI50 (HOP-92 NSCLC) 46.9 µM | GI50 (SF-268 CNS) 1.39 µM
> 26.9 µM: TGI (RXF 393 renal)
> 61.4 µM: TGI (BT-549 breast)
8.8 µM: TGI (HOP-62 NSCLC)
2.56 µM: TGI (SF-295 CNS)
> 47.7 µM: TGI (NCI-H23 lung)
30 µM: TGI (DU-145 prostate)
active: GI50 (NCI-H460 NSCLC) 0.0169 µM | GI50 (SF-295 CNS) 0.204 µM | GI50 (CCRF-CEM leukemia) 0.256 µM | GI50 (MOLT-4 leukemia) 0.0183 µM | GI50 (HOP-62 NSCLC) 0.228 µM | GI50 (MDA-MB-468 breast) 0.123 µM
> 100 µM: TGI (SK-OV-3 ovarian) | TGI (SF-539 CNS) | TGI (OVCAR-8 ovarian) | TGI (SK-MEL-28 melanoma) | TGI (HCT-15 colon) | TGI (T-47D breast) | TGI (ACHN renal) | TGI (RPMI-8226 leukemia) | TGI (NCI-H322M lung) | TGI (COLO 205 colon) | TGI (NCI-H522 lung) | TGI (HS 578T breast) | TGI (KM12 colon) | TGI (UACC-257 melanoma) | TGI (HCC-2998 colon) | TGI (OVCAR-4 ovarian) | TGI (UO-31 renal) | TGI (OVCAR-5 ovarian) | TGI (SK-MEL-2 melanoma) | TGI (786-0 renal) | TGI (EKVX NSCLC) | TGI (SW-620 colon) | TGI (MALME-3M melanoma) | TGI (SK-MEL-5 melanoma) | TGI (U251 glioblastoma) | TGI (LOX IMVI melanoma) | TGI (A549 NSCLC) | TGI (NCI/ADR-RES ovarian) | TGI (MDA-MB-435 melanoma) | TGI (SN12C renal) | TGI (A498 renal) | TGI (PC-3 prostate) | TGI (IGROV1 ovarian) | TGI (SNB-19 CNS) | TGI (HCT-116 colon) | TGI (CAKI-1 renal) | TGI (TK-10 renal) | TGI (K-562 leukemia) | TGI (UACC-62 melanoma) | TGI (OVCAR-3 ovarian) | TGI (NCI-H226 lung) | TGI (M14 melanoma) | TGI (MDA-MB-231 breast) | TGI (MCF7 breast) | TGI (HT29 colon) | TGI (HOP-92 NSCLC)
1.99 µM: TGI (HL-60(TB) leukemia)
0.0102 µM: TGI (SR leukemia)
1.13 µM: TGI (MDA-MB-468 breast)
0.145 µM: TGI (MOLT-4 leukemia)
